Experimental data from ChEMBL document CHEMBL1201862, “PubChem BioAssay data set” (2004).
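Results reflect a 48-hour exposure of cells in 96-well plates to compound at five concentrations. GI50 = concentration required for 50% inhibition of growth.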 The source made the active and inactive calls. Rule as the data show it: active = GI50 up to about 1.1 µM and inactive = higher.

Experiments:
Assay in all cases: NCI tumour cell line growth inhibition, 48 h
NCI-H226 = system: NCI-H226
SNB-19 = system: SNB-19
HOP-92 = system: HOP-92
EKVX = system: EKVX
SF-268 = system: SF-268
SK-MEL-2 = system: SK-MEL-2
PC-3 = system: PC-3
SK-OV-3 = system: SK-OV-3
OVCAR-4 = system: OVCAR-4
786-0 = system: 786-0
SNB-75 = system: SNB-75
MCF7 = system: MCF7
NCI/ADR-RES = system: NCI/ADR-RES
OVCAR-5 = system: OVCAR-5
HOP-62 = system: HOP-62
Hs-578T = system: Hs-578T
NCI-H522 = system: NCI-H522
CAKI-1 = system: CAKI-1
Malme-3M = system: Malme-3M
MDA-N = system: MDA-N
BT-549 = system: BT-549
ACHN = system: ACHN
HT-29 = system: HT-29
RPMI-8226 = system: RPMI-8226
SN12C = system: SN12C
SF-295 = system: SF-295
DU-145 = system: DU-145
MDA-MB-231 = system: MDA-MB-231
UACC-62 = system: UACC-62
IGROV-1 = system: IGROV-1
HCC 2998 = system: HCC 2998
HCT-15 = system: HCT-15
T47D = system: T47D
KM12 = system: KM12
M14 = system: M14
SK-MEL-28 = system: SK-MEL-28
U-251 = system: U-251
HCT-116 = system: HCT-116
NCI-H23 = system: NCI-H23
SW-620 = system: SW-620
TK-10 = system: TK-10
COLO 205 = system: COLO 205
UACC-257 = system: UACC-257
SK-MEL-5 = system: SK-MEL-5
A549 = system: A549
OVCAR-8 = system: OVCAR-8
MDA-MB-435 = system: MDA-MB-435
K562 = system: K562
NCI-H460 = system: NCI-H460
RXF 393 = system: RXF 393
LOX IMVI = system: LOX IMVI
SR = system: SR
A498 = system: A498
CCRF-CEM = system: CCRF-CEM
OVCAR-3 = system: OVCAR-3
SF-539 = system: SF-539
MOLT-4 = system: MOLT-4
UO-31 = system: UO-31
HL-60 = system: HL-60

For `Cc1nc2ccccc2nc1N1CCCC1`, the GI50 (NCI-H226) was > 100 µM (inactive), the GI50 (SNB-19) was > 100 µM (inactive) and the GI50 (HOP-92) was > 100 µM (inactive). For the same compound, the GI50 (EKVX) was 34.2 µM (inactive), the GI50 (SF-268) was > 100 µM (inactive) and the GI50 (SK-MEL-2) was > 100 µM (inactive). For the same compound, the GI50 (PC-3) was > 100 µM (inactive), the GI50 (SK-OV-3) was > 100 µM (inactive) and the GI50 (OVCAR-4) was > 100 µM (inactive). The GI50 (786-0) was > 100 µM (inactive), the GI50 (SNB-75) was 68.2 µM (inactive) and the GI50 (MCF7) was > 100 µM (inactive). The GI50 (NCI/ADR-RES) was > 100 µM (inactive), the GI50 (OVCAR-5) was > 100 µM (inactive) and the GI50 (HOP-62) was > 100 µM (inactive). The GI50 (Hs-578T) was > 100 µM (inactive), the GI50 (NCI-H522) was > 100 µM (inactive) and the GI50 (CAKI-1) was > 100 µM (inactive). The GI50 (Malme-3M) was > 100 µM (inactive), the GI50 (MDA-N) was > 100 µM (inactive) and the GI50 (BT-549) was > 100 µM (inactive). For the same compound, the GI50 (ACHN) was > 100 µM (inactive), the GI50 (HT-29) was > 100 µM (inactive) and the GI50 (RPMI-8226) was > 100 µM (inactive). The GI50 (SN12C) was > 100 µM (inactive), the GI50 (SF-295) was > 100 µM (inactive) and the GI50 (DU-145) was > 100 µM (inactive). For the same compound, the GI50 (MDA-MB-231) was > 100 µM (inactive), the GI50 (UACC-62) was > 100 µM (inactive) and the GI50 (IGROV-1) was > 100 µM (inactive). For the same compound, the GI50 (HCC 2998) was > 100 µM (inactive), the GI50 (HCT-15) was greater than 100 µM and the GI50 (T47D) was > 100 µM (inactive). For the same compound, the GI50 (KM12) was > 100 µM (inactive), the GI50 (M14) was > 100 µM (inactive) and the GI50 (SK-MEL-28) was > 100 µM (inactive). The GI50 (U-251) was > 100 µM (inactive), the GI50 (HCT-116) was > 100 µM (inactive) and the GI50 (NCI-H23) was > 100 µM (inactive). The GI50 (SW-620) was > 100 µM (inactive), the GI50 (TK-10) was > 100 µM (inactive) and the GI50 (COLO 205) was > 100 µM (inactive). For the same compound, the GI50 (UACC-257) was > 100 µM (inactive), the GI50 (SK-MEL-5) was > 100 µM (inactive) and the GI50 (A549) was > 100 µM (inactive). For the same compound, the GI50 (OVCAR-8) was > 100 µM (inactive), the GI50 (MDA-MB-435) was > 100 µM (inactive) and the GI50 (K562) was > 100 µM (inactive). For the same compound, the GI50 (NCI-H460) was > 100 µM (inactive), the GI50 (RXF 393) was > 100 µM (inactive) and the GI50 (LOX IMVI) was > 100 µM (inactive). For the same compound, the GI50 (SR) was > 100 µM (inactive) and the GI50 (A498) was > 100 µM (inactive).

With `S=C(NC/C(Br)=C/Br)Nc1cccc2ccccc12` the GI50 (CCRF-CEM) was 18.3 µM (inactive), the GI50 (NCI-H226) was 26.7 µM (inactive) and the GI50 (SNB-19) was 34 µM (inactive). For the same compound, the GI50 (HOP-92) was 20.2 µM (inactive), the GI50 (EKVX) was 28.9 µM (inactive) and the GI50 (SK-MEL-2) was 20.4 µM (inactive). The GI50 (PC-3) was 23.1 µM (inactive), the GI50 (SK-OV-3) was 37.5 µM (inactive) and the GI50 (OVCAR-4) was 30.3 µM (inactive). The GI50 (786-0) was 38.8 µM (inactive), the GI50 (SNB-75) was 33.5 µM (inactive) and the GI50 (MCF7) was 20 µM (inactive). For the same compound, the GI50 (NCI/ADR-RES) was 19 µM (inactive), the GI50 (OVCAR-5) was 33.6 µM (inactive) and the GI50 (HOP-62) was 30.3 µM (inactive). The GI50 (Hs-578T) was > 100 µM (inactive), the GI50 (NCI-H522) was 20 µM (inactive) and the GI50 (CAKI-1) was 29.2 µM (inactive). The GI50 (OVCAR-3) was 24 µM (inactive), the GI50 (Malme-3M) was 28.9 µM (inactive) and the GI50 (MDA-N) was 25.4 µM (inactive). For the same compound, the GI50 (BT-549) was 33.3 µM (inactive), the GI50 (ACHN) was 28.9 µM (inactive) and the GI50 (HT-29) was 34.5 µM (inactive). The GI50 (RPMI-8226) was 15.4 µM (inactive), the GI50 (SN12C) was 24.4 µM (inactive) and the GI50 (SF-539) was 25.5 µM (inactive). For the same compound, the GI50 (SF-295) was 33.3 µM (inactive), the GI50 (DU-145) was 30.9 µM (inactive) and the GI50 (MDA-MB-231) was 19.4 µM (inactive). For the same compound, the GI50 (UACC-62) was 24.2 µM (inactive), the GI50 (MOLT-4) was 17.8 µM (inactive) and the GI50 (IGROV-1) was 29.3 µM (inactive). For the same compound, the GI50 (HCT-15) was 31.3 µM, the GI50 (T47D) was 40.4 µM (inactive) and the GI50 (M14) was 16.8 µM (inactive). For the same compound, the GI50 (U-251) was 30.3 µM (inactive), the GI50 (HCT-116) was 24.2 µM (inactive) and the GI50 (NCI-H23) was 23.5 µM (inactive). The GI50 (TK-10) was 40.6 µM (inactive), the GI50 (COLO 205) was 18.5 µM (inactive) and the GI50 (UACC-257) was 22.5 µM (inactive). For the same compound, the GI50 (SK-MEL-5) was 16.4 µM (inactive), the GI50 (A549) was 34.2 µM (inactive) and the GI50 (UO-31) was 20.9 µM (inactive). The GI50 (OVCAR-8) was 27.6 µM (inactive), the GI50 (MDA-MB-435) was 34 µM (inactive) and the GI50 (K562) was 11.7 µM (inactive). The GI50 (RXF 393) was 31.3 µM (inactive), the GI50 (LOX IMVI) was 24.8 µM (inactive) and the GI50 (SR) was 15.4 µM (inactive). The GI50 (A498) was 33.5 µM (inactive) and the GI50 (HL-60) was 12.9 µM (inactive).

With `CCOC(=O)C1C(=O)CC1(C)C` (stereo not drawn) the GI50 (CCRF-CEM) was > 10 µM (inactive), the GI50 (NCI-H226) was > 10 µM (inactive) and the GI50 (SNB-19) was > 10 µM (inactive). For the same compound, the GI50 (HOP-92) was > 10 µM (inactive), the GI50 (EKVX) was > 10 µM (inactive) and the GI50 (SF-268) was > 10 µM (inactive). For the same compound, the GI50 (SK-MEL-2) was > 10 µM (inactive), the GI50 (PC-3) was > 10 µM (inactive) and the GI50 (SK-OV-3) was > 10 µM (inactive). For the same compound, the GI50 (OVCAR-4) was > 10 µM (inactive), the GI50 (786-0) was > 10 µM (inactive) and the GI50 (MCF7) was > 10 µM (inactive). The GI50 (NCI/ADR-RES) was > 10 µM (inactive), the GI50 (OVCAR-5) was > 10 µM (inactive) and the GI50 (HOP-62) was > 10 µM (inactive). The GI50 (Hs-578T) was > 10 µM (inactive), the GI50 (CAKI-1) was > 10 µM (inactive) and the GI50 (OVCAR-3) was > 10 µM (inactive). The GI50 (Malme-3M) was > 10 µM (inactive), the GI50 (MDA-N) was > 10 µM (inactive) and the GI50 (BT-549) was > 10 µM (inactive). The GI50 (ACHN) was > 10 µM (inactive), the GI50 (HT-29) was > 10 µM (inactive) and the GI50 (RPMI-8226) was > 10 µM (inactive). The GI50 (SN12C) was > 10 µM (inactive), the GI50 (SF-539) was > 10 µM (inactive) and the GI50 (SF-295) was > 10 µM (inactive). The GI50 (DU-145) was > 10 µM (inactive), the GI50 (MDA-MB-231) was > 10 µM (inactive) and the GI50 (UACC-62) was > 10 µM (inactive). The GI50 (MOLT-4) was > 10 µM (inactive), the GI50 (IGROV-1) was > 10 µM (inactive) and the GI50 (HCC 2998) was > 10 µM (inactive). For the same compound, the GI50 (HCT-15) was greater than 10 µM, the GI50 (T47D) was > 10 µM (inactive) and the GI50 (KM12) was > 10 µM (inactive). For the same compound, the GI50 (M14) was > 10 µM (inactive), the GI50 (SK-MEL-28) was > 10 µM (inactive) and the GI50 (U-251) was > 10 µM (inactive). For the same compound, the GI50 (HCT-116) was > 10 µM (inactive), the GI50 (NCI-H23) was > 10 µM (inactive) and the GI50 (SW-620) was > 10 µM (inactive). For the same compound, the GI50 (TK-10) was > 10 µM (inactive), the GI50 (COLO 205) was > 10 µM (inactive) and the GI50 (UACC-257) was > 10 µM (inactive). The GI50 (SK-MEL-5) was > 10 µM (inactive), the GI50 (A549) was > 10 µM (inactive) and the GI50 (UO-31) was > 10 µM (inactive). The GI50 (OVCAR-8) was > 10 µM (inactive), the GI50 (MDA-MB-435) was > 10 µM (inactive) and the GI50 (K562) was > 10 µM (inactive). The GI50 (NCI-H460) was > 10 µM (inactive), the GI50 (RXF 393) was > 10 µM (inactive) and the GI50 (LOX IMVI) was > 10 µM (inactive). The GI50 (SR) was > 10 µM (inactive), the GI50 (A498) was > 10 µM (inactive) and the GI50 (HL-60) was > 10 µM (inactive).
